# Earlier results as cited in US6414126B1, “C-aryl glucoside SGLT2 inhibitors and method” (Bristol-Myers Squibb Company, priority 1999, dated 2002).
# What was measured:
# [1] = target: T1, human SGLT1 (Homo sapiens, UniProt P13866); details: SGLT1 transporter; read-out: Km values for uptake
# T1 sequence (P13866 1-664): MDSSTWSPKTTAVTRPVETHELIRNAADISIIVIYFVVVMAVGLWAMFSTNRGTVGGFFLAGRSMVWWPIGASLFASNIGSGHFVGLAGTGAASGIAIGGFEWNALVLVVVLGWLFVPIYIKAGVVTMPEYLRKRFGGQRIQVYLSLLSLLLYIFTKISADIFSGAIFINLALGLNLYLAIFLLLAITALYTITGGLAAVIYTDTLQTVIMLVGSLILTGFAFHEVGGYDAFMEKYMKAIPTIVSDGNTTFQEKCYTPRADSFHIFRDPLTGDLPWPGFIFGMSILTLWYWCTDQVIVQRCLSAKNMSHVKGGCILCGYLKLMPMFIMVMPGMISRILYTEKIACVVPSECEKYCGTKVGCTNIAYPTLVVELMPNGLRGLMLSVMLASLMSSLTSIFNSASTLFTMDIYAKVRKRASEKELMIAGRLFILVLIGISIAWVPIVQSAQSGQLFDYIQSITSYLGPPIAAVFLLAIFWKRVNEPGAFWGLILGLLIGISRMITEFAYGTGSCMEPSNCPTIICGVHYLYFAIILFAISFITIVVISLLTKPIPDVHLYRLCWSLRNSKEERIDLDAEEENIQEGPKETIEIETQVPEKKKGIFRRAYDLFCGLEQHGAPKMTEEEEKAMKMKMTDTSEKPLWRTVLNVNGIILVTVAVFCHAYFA
# [2] = target: T2, human SGLT2 (Homo sapiens, UniProt P31639); details: SGLT2 transporter; read-out: Km values for uptake
# T2 sequence (P31639 1-672): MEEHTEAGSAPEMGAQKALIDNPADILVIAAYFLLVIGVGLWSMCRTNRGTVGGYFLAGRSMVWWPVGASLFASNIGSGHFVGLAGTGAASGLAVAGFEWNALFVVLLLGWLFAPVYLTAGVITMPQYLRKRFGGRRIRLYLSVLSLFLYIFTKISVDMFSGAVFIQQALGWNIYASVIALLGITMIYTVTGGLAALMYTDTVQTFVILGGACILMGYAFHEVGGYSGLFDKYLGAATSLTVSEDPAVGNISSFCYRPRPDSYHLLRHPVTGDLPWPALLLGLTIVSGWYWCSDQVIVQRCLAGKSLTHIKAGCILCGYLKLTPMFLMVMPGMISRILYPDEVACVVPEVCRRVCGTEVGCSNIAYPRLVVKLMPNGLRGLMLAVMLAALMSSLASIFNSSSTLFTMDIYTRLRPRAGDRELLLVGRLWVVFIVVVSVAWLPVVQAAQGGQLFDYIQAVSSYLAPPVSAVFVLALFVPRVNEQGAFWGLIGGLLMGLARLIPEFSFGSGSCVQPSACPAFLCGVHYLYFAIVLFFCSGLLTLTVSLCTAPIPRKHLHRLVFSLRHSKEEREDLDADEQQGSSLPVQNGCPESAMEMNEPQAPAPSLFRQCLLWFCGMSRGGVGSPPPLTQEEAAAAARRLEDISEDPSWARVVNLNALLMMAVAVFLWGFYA
smiles,measurement,setting,value
"CO[C@H]1O[C@H](CO)[C@@H](O)[C@H](O)[C@H]1O [AMG, α-methyl-D-glucopyranoside]",Km,[1],400 µM
same,Km,[2],1600 µM
